Our source for the T/C values is PubChem BioAssay AID228 (DTP/NCI, 2004).

Values joined by “and” are separate entries in the source; they are usually repeats but may differ in a detail not shown here. Equal entries are not always repeated. Inconclusive results are not listed.

This assay deals with BDF1 mice, Friend leukemia sc, tumor weight T/C. Nature of the assay: NCI In Vivo Anticancer Drug Screen. Data for tumor model Friend Virus Leukemia (Solid) (subcutaneous) in B6D2F1 (BDF1) mice. The conditions noted are these: endpoint: mean tumor weight, higher = larger tumour. The protocol:
The antitumor activity of compounds was measured in mice bearing transplantable tumors. Survival or tumor size were measured and the results are expressed as the measurement made in the treated group (T) divided by the measurement made in the vehicle treated control group (C). The tumor model used in this assay is Friend Virus Leukemia (Solid) (subcutaneous) in B6D2F1 (BDF1) mice

Setting [1] is: dose: 3.75 mg/kg/injection, schedule: Q01DX011 (ip), vehicle: carboxymethylcellulose (CMC).
The mark [2] stands for this setting: dose: 15.0 mg/kg/injection, schedule: Q01DX011 (ip), vehicle: carboxymethylcellulose (CMC).
Where [3] appears, read: dose: 0.1 mg/kg/injection, schedule: Q01DX011 (ip), vehicle: carboxymethylcellulose (CMC).
Where [4] appears, read: dose: 5.0 mg/kg/injection, schedule: Q01DX011 (ip), vehicle: carboxymethylcellulose (CMC).
The mark [5] stands for this setting: dose: 10.0 mg/kg/injection, schedule: Q01DX011 (ip), vehicle: carboxymethylcellulose (CMC).
The mark [6] stands for this setting: dose: 20.0 mg/kg/injection, schedule: Q01DX011 (ip), vehicle: carboxymethylcellulose (CMC).
Where [7] appears, read: dose: 40.0 mg/kg/injection, schedule: Q01DX011 (ip), vehicle: carboxymethylcellulose (CMC).
The mark [8] stands for this setting: dose: 6.0 mg/kg/injection, schedule: Q01DX011 (ip), vehicle: carboxymethylcellulose (CMC).

As to `CC(C)=CC1C(C(=O)OCc2ccc(C)cc2C)C1(C)C` (stereo unspecified), the T/C is 107 % of control (dose: 87.5 mg/kg/injection, schedule: Q01DX011 (ip), vehicle: carboxymethylcellulose (CMC)); 83 % of control (dose: 175.0 mg/kg/injection, schedule: Q01DX011 (ip), vehicle: carboxymethylcellulose (CMC)); 53 % of control (dose: 350.0 mg/kg/injection, schedule: Q01DX011 (ip), vehicle: carboxymethylcellulose (CMC)); 46 % of control (dose: 500.0 mg/kg/injection, schedule: Q01DX011 (ip), vehicle: carboxymethylcellulose (CMC)).

Consider `CN(C)C(=S)N=Nc1c(O)[nH]c2ccccc12`, for which the T/C (dose: 15.0 mg/kg/injection, schedule: Q01DX011 (ip), vehicle: saline) was 76 % of control; the T/C (dose: 30.0 mg/kg/injection, schedule: Q01DX011 (ip), vehicle: saline) was 105 % of control; the T/C (dose: 60.0 mg/kg/injection, schedule: Q01DX011 (ip), vehicle: saline) was 85 % of control; the T/C (dose: 120.0 mg/kg/injection, schedule: Q01DX011 (ip), vehicle: saline) is 54 % of control.

Take `CC(C)CCSc1nc(N)nc2nc[nH]c12`: the T/C (dose: 11.0 mg/kg/injection, schedule: Q01DX011 (ip), vehicle: carboxymethylcellulose (CMC)) is 59 % of control; the T/C (dose: 22.0 mg/kg/injection, schedule: Q01DX011 (ip), vehicle: carboxymethylcellulose (CMC)) was 38 % of control; the T/C (dose: 45.0 mg/kg/injection, schedule: Q01DX011 (ip), vehicle: carboxymethylcellulose (CMC)) is 18 % of control and 21 % of control; the T/C (dose: 90.0 mg/kg/injection, schedule: Q01DX011 (ip), vehicle: carboxymethylcellulose (CMC)) was 7 % of control and 21 % of control; the T/C (dose: 180.0 mg/kg/injection, schedule: Q01DX011 (ip), vehicle: carboxymethylcellulose (CMC)) was 5 % of control.

Take `CC1CCC2(C(=O)O)CCC3(C)C(=CCC4C5(C)CCC(O)C(C)(C)C5CCC43C)C2C1C` (stereo unspecified): the T/C is 76 % of control (dose: 50.0 mg/kg/injection, schedule: Q01DX011 (ip), vehicle: other); 69 % of control (dose: 100.0 mg/kg/injection, schedule: Q01DX011 (ip), vehicle: other); 115 % of control (dose: 200.0 mg/kg/injection, schedule: Q01DX011 (ip), vehicle: other).

As for `Nc1nc(N)c(N=O)c(Nc2ccc(Cl)c(Cl)c2)n1`, the T/C runs as follows: under setting [1], 153 % of control; (dose: 7.5 mg/kg/injection, schedule: Q01DX011 (ip), vehicle: carboxymethylcellulose (CMC)) 69 % of control; under setting [2], 109 % of control; (dose: 30.0 mg/kg/injection, schedule: Q01DX011 (ip), vehicle: carboxymethylcellulose (CMC)) 91 % of control.

`CC(=O)[C@H]1CC[C@H]2[C@@H]3CCC4=CC(=O)CC[C@]4(C)[C@H]3CC[C@]12C`: the T/C by setting is: (dose: 250.0 mg/kg/injection, schedule: Q01DX011 (sc), vehicle: steriod suspending solution) 228 % of control; (dose: 500.0 mg/kg/injection, schedule: Q01DX011 (sc), vehicle: steriod suspending solution) 165 % of control; (dose: 750.0 mg/kg/injection, schedule: Q01DX011 (sc), vehicle: steriod suspending solution) 212 % of control; (dose: 1000.0 mg/kg/injection, schedule: Q01DX011 (sc), vehicle: steriod suspending solution) 291 % of control.

`Nc1ccc(O)cc1`: the T/C was 64 % of control (dose: 100.0 mg/kg/injection, schedule: Q01DX011 (ip), vehicle: saline) and 4 % of control (dose: 200.0 mg/kg/injection, schedule: Q01DX011 (ip), vehicle: saline).

On to `CCCCCCCCCCCC[n+]1c(C)cc(N)c2ccccc21`, for which the T/C under setting [3] is 182 % of control.

For the molecule `CN(C)Nc1ncnc2nc[nH]c12`, the T/C by setting is: under setting [4], 74 % of control; under setting [5], 80 % of control; under setting [6], 59 % of control and 65 % of control; under setting [7], 17 % of control and 35 % of control.

As for `O=C(c1ccc(C(=O)N2CC2)cc1)N1CC1`, the T/C reads like this: (dose: 3.0 mg/kg/injection, schedule: Q01DX011 (ip), vehicle: carboxymethylcellulose (CMC)) 79 % of control; under setting [8], 90 % of control; (dose: 12.0 mg/kg/injection, schedule: Q01DX011 (ip), vehicle: carboxymethylcellulose (CMC)) 74 % of control; (dose: 24.0 mg/kg/injection, schedule: Q01DX011 (ip), vehicle: carboxymethylcellulose (CMC)) 76 % of control.

As for `N#Cc1cn(C2OC(CO)C(O)C2O)c2ncnc(N)c12` (stereo unspecified), the T/C (dose: 0.05 mg/kg/injection, schedule: Q01DX011 (ip), vehicle: carboxymethylcellulose (CMC)) was 68 % of control; the T/C under setting [3] is 72 % of control; the T/C (dose: 0.15 mg/kg/injection, schedule: Q01DX011 (ip), vehicle: carboxymethylcellulose (CMC)) was 71 % of control.

As for `Nc1ncnc2[nH]ncc12`, the T/C by setting is: (dose: 0.9 mg/kg/injection, schedule: Q01DX011 (ip), vehicle: carboxymethylcellulose (CMC)) 108 % of control; (dose: 0.93 mg/kg/injection, schedule: Q01DX011 (ip), vehicle: carboxymethylcellulose (CMC)) 74 % of control; (dose: 1.8 mg/kg/injection, schedule: Q01DX011 (ip), vehicle: carboxymethylcellulose (CMC)) 157 % of control; (dose: 1.87 mg/kg/injection, schedule: Q01DX011 (ip), vehicle: carboxymethylcellulose (CMC)) 90 % of control; (dose: 1.9 mg/kg/injection, schedule: Q01DX011 (ip), vehicle: carboxymethylcellulose (CMC)) 124 % of control; (dose: 3.7 mg/kg/injection, schedule: Q01DX011 (ip), vehicle: carboxymethylcellulose (CMC)) 57 % of control. The T/C reads like this: under setting [1], 50 % of control; (dose: 3.8 mg/kg/injection, schedule: Q01DX011 (ip), vehicle: carboxymethylcellulose (CMC)) 88 % of control; under setting [4], 29 % of control; under setting [8], 40 % of control; (dose: 7.0 mg/kg/injection, schedule: Q01DX011 (ip), vehicle: carboxymethylcellulose (CMC)) 28 % of control.

On to `Cc1cc(N(CCCl)CCCl)ccc1C=Nc1ccccc1-c1ccccc1`, for which the T/C by setting is: under setting [4], 54 % of control; under setting [5], 70 % of control; under setting [6], 104 % of control; under setting [7], 60 % of control; (dose: 80.0 mg/kg/injection, schedule: Q01DX011 (ip), vehicle: carboxymethylcellulose (CMC)) 77 % of control.

With `CO[C@@]12[C@H](COC(N)=O)C3=C(C(=O)C(C)=C(N)C3=O)N1C[C@@H]1N[C@@H]12`, the T/C runs as follows: (dose: 0.06 mg/kg/injection, schedule: Q01DX011 (ip), vehicle: carboxymethylcellulose (CMC)) 48 % of control; under setting [3], 66 % of control; (dose: 0.13 mg/kg/injection, schedule: Q01DX011 (ip), vehicle: carboxymethylcellulose (CMC)) 56 % of control; (dose: 0.2 mg/kg/injection, schedule: Q01DX011 (ip), vehicle: carboxymethylcellulose (CMC)) 77 % of control; (dose: 0.25 mg/kg/injection, schedule: Q01DX011 (ip), vehicle: carboxymethylcellulose (CMC)) 35 % of control and 45 % of control; (dose: 0.4 mg/kg/injection, schedule: Q01DX011 (ip), vehicle: carboxymethylcellulose (CMC)) 100 % of control. Besides, the T/C is, setting by setting: (dose: 0.5 mg/kg/injection, schedule: Q01DX011 (ip), vehicle: carboxymethylcellulose (CMC)) 28 % of control; (dose: 0.8 mg/kg/injection, schedule: Q01DX011 (ip), vehicle: carboxymethylcellulose (CMC)) 75 % of control.

As for `C=CCn1c(=O)n(CC=C)c(=O)n(CC=C)c1=O`, the T/C is, setting by setting: (dose: 22.5 mg/kg/injection, schedule: Q01DX011 (ip), vehicle: saline) 77 % of control; (dose: 45.0 mg/kg/injection, schedule: Q01DX011 (ip), vehicle: saline) 103 % of control; (dose: 90.0 mg/kg/injection, schedule: Q01DX011 (ip), vehicle: saline) 64 % of control; (dose: 180.0 mg/kg/injection, schedule: Q01DX011 (ip), vehicle: saline) 82 % of control.

With `C[N+](C)(C)c1ncnc2nc[nH]c12`, the T/C was 106 % of control (dose: 31.0 mg/kg/injection, schedule: Q01DX011 (ip), vehicle: carboxymethylcellulose (CMC)); 43 % of control (dose: 62.0 mg/kg/injection, schedule: Q01DX011 (ip), vehicle: carboxymethylcellulose (CMC)); 47 % of control (dose: 125.0 mg/kg/injection, schedule: Q01DX011 (ip), vehicle: carboxymethylcellulose (CMC)).

For the molecule `C[C@@H]1C[C@@H]([C@H](O)CC2CC(=O)NC(=O)C2)C(=O)[C@@H](C)C1`, the T/C is, setting by setting: (dose: 4.3 mg/kg/injection, schedule: Q01DX011 (ip), vehicle: carboxymethylcellulose (CMC)) 80 % of control; under setting [2], 31 % of control and 46 % of control.
